# Measurements: US20090252717A1, “Compositions and Methods for Treating Polyglutamine-Expansion Neurodegenerative Diseases” (priority 2006, published 2009)
# Entries after “also recorded” stand apart in the source; their conditions may differ.
# Assays:
# [1] = test system: polyQ-AR-induced inhibition of fast axonal transport; test: Vesicle motility assay in isolated squid axoplasm, co-perfusion with polyQ-AR; assay type: cell-based, squid Loligo pealeii
# Description: (§1) Recombinant Polypeptides. Wild-type androgen receptor and polyQ-AR polypeptides were produced by in vitro transcription/translation (TNT T7-Coupled Reticulocyte Lysate System; Promega, Madison, Wis.) according to manufacturer's protocols. Typically, 1.8 μg of plasmid was transcribed in 50 μl reaction mix. To assess protein levels, parallel reactions were performed incorporating ^35S-labeled methionine (Amersham) or quantitative immunoblots were performed. Protein concentrations were typically 0.2-0.5 nM. In vitro translated androgen receptor has been characterized and shown to be functional (Kuiper, et al. (1993) Biochem. J. 296(Pt 1):161-7). In vitro translation products were briefly centrifuged to eliminate translation machinery, and supernatants frozen in liquid N2 until used.
# (§2) Squid Axoplasm. Isolated squid axoplasm represents a unique experimental system to evaluate axonal-specific effects and pathogenic mechanisms. This model was instrumental in the original discovery of kinesin-1 (Brady (1985) Nature 317:73-75, novel pathways for fast axonal transport (Morfini, et al. (2002) supra; Morfini, et al. (2004) supra), and axonal-specific phosphorylation events (Grant & Pant (2000) J. Neurocytol. 29:843-72). Bidirectional membrane-bound organelle movements are observed with properties unchanged from intact axons for hours after removal of plasma membrane (Brady, et al. (1982) Science 218:1129-1131). Video-enhanced microscopic techniques allow quantitative analysis of membrane-bound organelle movement in fast axonal transport. Typical kinesin-dependent transport rates are 1.5-2.0 μm/s, whereas retrograde, cytoplasmic dynein-dependent rates are 1-1.3 μm/s in perfused axoplasms. These rates are maintained with little (<10%) or no reduction for >1 hour after perfusion with control buffer (Brady, et al. (1982) supra). […]
# (§3) Motility Studies in Isolated Axoplasm. […] Preparations were analyzed on a ZEISS AXIOMAT with a 100×, 1.3 n.a. objective, and DIC optics. […] Organelle velocities were measured with a Photonics Microscopy C2117 video manipulator (Hamamatsu).
# [2] = test system: polyQ-Htt-induced inhibition of fast axonal transport; test: Vesicle motility assay in isolated squid axoplasm, co-perfusion with polyQ-Htt; assay type: cell-based, squid Loligo pealeii; settings: co-perfused with polyQ-Htt, concentration not given
# Source text: (§4) Genes encoding human wild-type Huntingtin (Htt) (i.e., Q20, residues 1-548; Szebenyi, et al. (2003) supra) and polyQ-expanded Htt (i.e., Q46, residues 1-949; Qin, et al. (2004) J. Neurosci. 24(1):269-81) were cloned into the pcDNA.3 vector and produced by in vitro transcription/translation as described for the androgen receptor. Alternatively, shorter constructs (Htt exon1) were expressed in E. coli as GST-tagged proteins.
# as §2, with “transport.” for “transport. Typical kinesin-dependent transport rates are 1.5-2.0 μm/s, whereas retrograde, cytoplasmic dynein-dependent rates are 1-1.3 μm/s in perfused axoplasms. These rates are maintained with little (<10%) or no reduction for >1 hour after perfusion with control buffer (Brady, et al. (1982) supra).”
# Motility Studies in Isolated Axoplasm. […] Preparations were analyzed on a ZEISS AXIOMAT with a 100×, 1.3 n.a. objective, and DIC optics. […]
# [3] = test system: 902-6 SH-SY5Y cells (polyQ-AR); test: Neurite outgrowth of differentiated SH-SY5Y cells expressing polyQ-AR; assay type: cell-based, human
# Description: (§5) SH-SY5Y Cell Culture and Pharmacological Inhibition. Androgen receptor constructs containing wild-type androgen receptor (Q20) and pathogenic androgen receptor (Q56) tracts were prepared and stably transfected into SH-SY5Y human neuroblastoma cells (Avila, et al. (2003) Exp. Biol. Med. (Maywood) 228:982-90). Wild-type and 902-6 cells (expressing both full-length polyQ-AR and a truncated N-terminal androgen receptor fragment (≈25 kD) that accumulated in cytoplasm) were grown and differentiated (Szebenyi, et al. (2003) supra). Cells were plated at densities of 10,000 cells/cm^2 on 10-cm tissue culture dishes for biochemical studies, and at 3000-5000 cells/cm^2 on 4-well tissue-tech chamber slides (Becton-Dickinson, Mountain View, Calif.) for immunocytochemistry and morphometric studies. For inhibitor studies, cells were differentiated with 10 μM retinoic acid in serum for 5-6 days, and then switched to serum-free medium supplemented with 25 ng/ml BDNF (Alomone Laboratories, Jerusalem, Israel) with or without SB203580 inhibitor. Cell morphologies were evaluated after 3 days in BDNF±SB203580 (Szebenyi, et al. (2003) supra).
# [4] = test system: wild-type androgen receptor SH-SY5Y cells; test: Neurite outgrowth of differentiated SH-SY5Y cells expressing wild-type androgen receptor; assay type: cell-based, human; settings: 10 μM
# Description: as §5
# [5] = test system: p38α, p38β, JNK2, and JNK3; settings: cited from earlier work
# fast axonal transport [6] = test: Vesicle motility assay in isolated squid axoplasm, perfusion of recombinant protein alone; assay type: cell-based, squid Loligo pealeii; settings: protein alone
# Description: as §1, §4
# as §2, with “supra). The lack of permeability barriers allows perfusion of the axoplasm with a variety of effector molecules at known concentrations. Effectors of interest include nucleotides, pharmacological inhibitors, recombinant polypeptides, and antibodies.” for “supra).”
# as §3
# [7] = test system: neurofilament phosphorylation; test: Neurofilament phosphorylation in squid axoplasm (immunoblot, SMI32); assay type: cell-based; settings: axoplasm incubated with protein
# Description: Phosphorylation Studies in Squid Axoplasm. Three to four axoplasms were triturated in KB buffer (KB: 10 mM HEPES pH 7.4, 10 mM MgCl2, 1 mM DTT) and aliquoted. Individual reactions with corresponding in vitro-translated androgen receptor constructs were started by adding radiolabeled ATP to 100 μM. Reactions were done in 50 μl, incubated for 20 minutes at room temperature and stopped with 50 μl of 2× sample buffer. Lysates were separated by SDS-PAGE and analyzed by autoradiography. For certain indicated assays, 2 axoplasms per tube were incubated in X/2 buffer for 50 minutes with corresponding in vitro-translated androgen receptor construct, then 50 μl of 2× sample buffer was added and samples analyzed by immunoblot.
# kinesin-1 = test: Kinesin-1 ATPase assay; assay type: biochemical, rat; settings: in vitro, up to equimolar levels of androgen receptor and kinesin-1
# Description: Kinesin-1 ATPase Assays. Kinesin-1 basal and microtubule-activated ATPase activity was assayed according to known methods (Morfini, et al. (2002) supra; Tsai, et al. (2000) Mol. Biol. Cell 11:2161-2173). Briefly, purified rat brain kinesin and in vitro-translated androgen receptor constructs were incubated with or without TAXOL-stabilized MAP-free microtubules (1 mg/ml). Assays were started by addition of 1 mCi γ-^32P ATP (ICN Biochemicals, Costa Mesa, Calif.) and incubated for 25 minutes at 37° C. Reactions were stopped with 10% SDS and aliquots spotted on PEI-cellulose plates. Chromatograms were developed in 0.5 M LiCl/1 M formic acid and spots for ^32P and γ-^32P ATP counted to obtain percent of total ^32P recovered as free phosphate.
# fast axonal transport [8] = settings: cited from earlier work
# [9] = co-perfused with polyQ-AR, concentration not given
Compound,"effect on polyQ-AR-induced inhibition of fast axonal transport [1, 9]",effect on polyQ-Htt-induced inhibition of fast axonal transport [2],mean fast axonal transport rate (fast axonal transport [6]; 20-30 minutes),mean fast axonal transport rate (fast axonal transport [6]; 40-50 minutes),effect on basal and microtubule-activated ATPase activity of kinesin-1 (kinesin-1),also measured
CCSCc1ccc2c(c1)c1c3c(c4c5cc(CSCC)ccc5n5c4c1n2[C@H]1C[C@](O)(C(=O)OC)[C@]5(C)O1)CNC3=O [CEP-1347],prevented the effects of polyQ-Htt and polyQ-AR on fast axonal transport,prevented the effects of polyQ-Htt and polyQ-AR on fast axonal transport,–,–,–,–
C[S+]([O-])c1ccc(-c2nc(-c3ccncc3)c(-c3ccc(F)cc3)[nH]2)cc1 (stereo not shown) [SB203580],–,prevented the effects of polyQ-Htt on fast axonal transport,–,–,–,"effect on polyQ-AR-induced inhibition of fast axonal transport ([1]; 10 μM co-perfused with polyQ-AR): completely blocked the inhibition of fast axonal transport in both anterograde and retrograde directions; proportion of cells with long neurites (>80 μm in length) ([3]; 10 μM or 20 μM): dramatic and dose-dependent increase in the proportion of cells that extended long neurites; also recorded: significant increase in the number of polyQ-AR cells extending long neurites; neurite length / outgrowth ([3]; 10 μM, 3 days BDNF): increasing neurite outgrowth; also recorded: increased in length; neurite length / morphology distribution ([3]; 20 μM, 3 days BDNF): nearly indistinguishable between wild-type and 902-6 cells; also recorded: indistinguishable from untreated wild-type androgen receptor cells; effect on inhibition of neurite outgrowth by polyQ-AR ([3]; added to culture media, 3 days BDNF): overcame inhibition of neurite outgrowth by polyQ-AR; also recorded: reverses inhibition of neurite formation by polyQ-AR; neurite outgrowth [4]: increasing neurite outgrowth; kinases inhibited [5]: inhibits p38α, p38β, JNK2, and JNK3"
C=C1[C@@H](O)[C@@H]2O[C@]3(CC[C@H](/C=C/[C@@H](C)[C@@H]4CC(C)=C[C@@]5(O[C@H](C[C@@](C)(O)C(=O)O)CC[C@H]5O)O4)O3)CC[C@H]2O[C@@H]1[C@@H](O)C[C@H](C)[C@H]1O[C@@]2(CCCCO2)CC[C@H]1C [okadaic acid],failed to prevent polyQ-AR-induced fast axonal transport inhibition,–,–,–,–,–
polyQ-AR: polyglutamine-expanded androgen receptor (Q56) produced by in vitro transcription/translation,–,–,1.25±0.03 μm/sec,1.08±0.02 μm/sec,failed to affect either basal or microtubule-activated ATPase activity of kinesin-1,SMI32 immunoreactivity [7]: reduced; level that inhibits fast axonal transport (fast axonal transport [8]): < 1 nM
wild-type androgen receptor: wild-type androgen receptor (Q20) produced by in vitro transcription/translation,–,–,1.71±0.03 μm/sec,1.77±0.04 μm/sec,not affected,–
